From ChEMBL document CHEMBL4831524, “AZD0284, a Potent, Selective, and Orally Bioavailable Inverse Agonist of Retinoic Acid Receptor-Related Orphan Receptor C2” (J Med Chem, 2021)

Legend:
[1] = target: Voltage-gated inwardly rectifying potassium channel KCNH2 (Homo sapiens, UniProt Q12809)
in vitro [2] = details: human, liver microsomes
physchem = details: 1-octanol/phosphate buffered saline, pH 7.4
[3] = Apparent permeability across apical to basolateral side in human Caco-2 cells; format: ADME, cell-based
[4] = Intrinsic permeability of compound from apical to basolateral side in human Caco2 cells; format: ADME, cell-based; details: Caco-2
cells = details: Homo sapiens, Th17, 96 h
[5] = rat, in vivo, po, 1 mg/kg
in vivo [6] = details: Han Wistar, rat, po, 1 mg/kg
in vivo [7] = details: Han Wistar, rat, po, 1 mg/kg; remark: listed apart in the source
in vivo [8] = details: Han Wistar, rat, po, 1 mg/kg; remark: listed apart in the source
in vitro [9] = details: rat, hepatocytes
in vitro [10] = details: human, hepatocytes

Chain of Voltage-gated inwardly rectifying potassium channel KCNH2 (Q12809 whole entry): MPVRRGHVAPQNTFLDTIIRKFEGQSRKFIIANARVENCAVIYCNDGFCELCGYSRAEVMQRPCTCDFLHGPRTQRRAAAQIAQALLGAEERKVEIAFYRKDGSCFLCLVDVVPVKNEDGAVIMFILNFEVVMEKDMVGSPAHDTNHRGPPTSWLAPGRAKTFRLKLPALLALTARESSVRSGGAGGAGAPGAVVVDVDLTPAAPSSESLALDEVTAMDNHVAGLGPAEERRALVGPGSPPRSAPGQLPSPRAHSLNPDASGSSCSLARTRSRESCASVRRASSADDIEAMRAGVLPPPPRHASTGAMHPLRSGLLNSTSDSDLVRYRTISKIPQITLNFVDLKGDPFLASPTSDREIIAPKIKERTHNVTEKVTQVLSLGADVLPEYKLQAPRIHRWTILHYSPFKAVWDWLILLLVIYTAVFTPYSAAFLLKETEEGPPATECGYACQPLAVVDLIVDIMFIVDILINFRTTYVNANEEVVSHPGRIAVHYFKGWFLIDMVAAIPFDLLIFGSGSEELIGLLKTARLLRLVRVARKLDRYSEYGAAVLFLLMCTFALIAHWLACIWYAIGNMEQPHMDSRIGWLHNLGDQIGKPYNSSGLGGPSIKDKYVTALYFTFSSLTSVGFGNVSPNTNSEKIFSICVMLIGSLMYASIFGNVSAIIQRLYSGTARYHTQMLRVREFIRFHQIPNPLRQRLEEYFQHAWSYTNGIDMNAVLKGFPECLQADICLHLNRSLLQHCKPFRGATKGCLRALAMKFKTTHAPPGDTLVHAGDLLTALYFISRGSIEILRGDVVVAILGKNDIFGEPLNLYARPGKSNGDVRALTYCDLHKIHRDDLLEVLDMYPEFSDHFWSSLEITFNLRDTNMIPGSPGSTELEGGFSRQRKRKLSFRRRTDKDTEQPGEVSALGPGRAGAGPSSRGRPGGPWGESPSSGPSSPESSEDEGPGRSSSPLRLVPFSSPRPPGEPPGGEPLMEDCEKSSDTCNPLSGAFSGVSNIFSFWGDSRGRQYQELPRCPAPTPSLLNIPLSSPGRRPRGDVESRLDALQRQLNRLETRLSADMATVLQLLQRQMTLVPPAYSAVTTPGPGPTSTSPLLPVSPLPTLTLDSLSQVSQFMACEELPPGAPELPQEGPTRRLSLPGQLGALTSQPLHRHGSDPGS

microsomal CLint (in vitro [2]) | logD (physchem) | SMILES | further results
19 µL/min/mg | 3.2 | COCC(=O)N1Cc2cc(S(=O)(=O)CC3CC3)ccc2C1C(=O)Nc1ccc(C(O)(C(F)(F)F)C(F)(F)F)cc1 (stereo not given) | –
< 3 µL/min/mg | 2.5 | CNC(=O)N1Cc2cc(S(C)(=O)=O)ccc2C1C(=O)Nc1ccc(C(O)(C(F)(F)F)C(F)(F)F)cc1 (stereo not given) | –
11 µL/min/mg | 3.2 | CC(=O)N1Cc2cc(S(=O)(=O)NC3CC3)ccc2C1C(=O)Nc1ccc(C(O)(C(F)(F)F)C(F)(F)F)cc1 (stereo not given) | –
< 3 µL/min/mg | 1.9 | CS(=O)(=O)c1ccc2c(c1)CN(C(=O)CO)C2C(=O)Nc1ccc(C(O)(C(F)(F)F)C(F)(F)F)cc1 (stereo not given) | –
3.1 µL/min/mg | 2.1 | CC(=O)N1Cc2cc(S(=O)(=O)CCO)ccc2C1C(=O)Nc1ccc(C(O)(C(F)(F)F)C(F)(F)F)cc1 (stereo not given) | –
< 3 µL/min/mg | 2.9 | COC(=O)N1Cc2cc(S(C)(=O)=O)ccc2C1C(=O)Nc1ccc(C(O)(C(F)(F)F)C(F)(F)F)cc1 (stereo not given) | –
< 3 µL/min/mg | 2.6 | CNS(=O)(=O)c1ccc2c(c1)CN(C(=O)C1CCO1)C2C(=O)Nc1ccc(C(O)(C(F)(F)F)C(F)(F)F)cc1 (stereo not given) | –
< 3 µL/min/mg | 3.4 | CC(=O)N1Cc2cc(S(=O)(=O)CC3CC3)ccc2C1C(=O)Nc1ccc(C(O)(C(F)(F)F)C(F)(F)F)cc1 (stereo not given) | –
< 3 µL/min/mg | 2.9 | CC(=O)N1CCc2cc(S(C)(=O)=O)ccc2C1C(=O)Nc1ccc(C(O)(C(F)(F)F)C(F)(F)F)cc1 (racemic) | –
< 3 µL/min/mg | 2.4 | CC(=O)N1Cc2cc(S(C)(=O)=O)ccc2C1C(=O)Nc1ccc(C(O)(C(F)(F)F)C(F)(F)F)cc1 (racemic) | Vdss [5]: 2 L/kg; CL/F (in vivo [6]): 6.3 mL/min/kg; half-life (in vivo [7]): 4.9 h; bioavailability (in vivo [8]): 40%; hepatocyte CLint (in vitro [9]): < 1 µL/min/1e6 cells; hepatocyte CLint (in vitro [10]): < 1 µL/min/1e6 cells

Second part, the compound before the results:

SMILES | microsomal CLint (in vitro [2]) | logD (physchem) | further results
CCS(=O)(=O)c1ccc(C(NC(=O)Cc2ccccn2)C(=O)Nc2ccc(C(O)(C(F)(F)F)C(F)(F)F)cc2)nc1 (stereo not given) | < 3 µL/min/mg | 2.8 | IC50 [1]: 4.1 µM
CCS(=O)(=O)c1ccc(C(NC(=O)Cc2nccs2)C(=O)Nc2ccc(C(O)(C(F)(F)F)C(F)(F)F)cc2)nc1 (stereo not given) | 16 µL/min/mg | 3.1 | Papp A→B [3]: 2.5 ×10⁻⁶ cm/s; Pm [4]: 11; IC50 [1]: 5.5 µM
CCS(=O)(=O)c1ccc(C(CC(=O)N(C)C)C(=O)Nc2ccc(C(O)(C(F)(F)F)C(F)(F)F)cc2)cc1 (stereo not given) | 5 µL/min/mg | 3.1 | Papp A→B [3]: 1.4 ×10⁻⁶ cm/s; Pm [4]: 24; IC50 (cells): 0.091 µM
CCS(=O)(=O)c1ccc([C@H](CC(=O)NC)C(=O)Nc2ccc(C(O)(C(F)(F)F)C(F)(F)F)cc2)cc1 | < 3 µL/min/mg | 3.1 | IC50 [1]: > 40 µM
CCS(=O)(=O)c1ccc2c(c1)CN(C(=O)C1CCO1)C2C(=O)Nc1ccc(C(O)(C(F)(F)F)C(F)(F)F)cc1 (stereo not given) | < 3 µL/min/mg | 2.6 | –
CNS(=O)(=O)c1ccc2c(c1)CN(C=O)C2C(=O)Nc1ccc(C(O)(C(F)(F)F)C(F)(F)F)cc1 (stereo not given) | 6.8 µL/min/mg | 2.7 | –
CC(=O)N1Cc2cc(S(=O)(=O)CC3(F)CC3)ccc2C1C(=O)Nc1ccc(C(O)(C(F)(F)F)C(F)(F)F)cc1 (stereo not given) | 7.9 µL/min/mg | 3.1 | –
CC(=O)NC(C(=O)Nc1ccc(C(O)(C(F)(F)F)C(F)(F)F)cc1)c1ccc(S(C)(=O)=O)cc1 (racemic) | < 3 µL/min/mg | 2.7 | –
